The numbers were not newly measured in US20230293541A1, “METHODS OF TREATING OPHTHALMIC CONDITIONS WITH ENHANCED PENETRATION COMPOSITIONS OF BIMATOPROST AND TIMOLOL” (Somerset Therapeutics, LLC, priority 2022, published 2023), which cites them from elsewhere.

The conditions of data set [1]: under certain conditions.
The conditions of data set [2]: patients starting on prostaglandin monotherapy.
For data set [3] the following is noted: in comparison to latanoprost and travoprost.
For data set [4] the following is noted: three-month comparison, glaucoma and ocular hypertension.

On to `CC(C)OC(=O)CCC/C=C\C[C@@H]1[C@@H](/C=C/[C@@H](O)COc2cccc(C(F)(F)F)c2)[C@H](O)C[C@@H]1O` [travoprost], for which the API stability entry in data set [1] is reported as “experiencing degradation”. Also, the “rate of adjunctive medication use” value in data set [2] was 22.5%.
For the compound `CCNC(=O)CCC/C=C\C[C@@H]1[C@@H](/C=C/[C@@H](O)CCc2ccccc2)[C@H](O)C[C@@H]1O` [bimatoprost, (Z)-7-[(1R, 2R, 3R, 5S)-3,5-Dihydroxy-2-[(1E, 3S)˜3-hydroxy-5-phenyl˜1-pentenyl]cyclopentyl]˜5-N-ethylheptenamid], in data set [1], the API stability entry is “remain stable”. For the same compound, the “rate of adjunctive medication use” value in data set [2] is reported as 23.2%. Besides, the corneal penetration result in data set [3] was “poor corneal penetration”. In addition, the “mean pressures (IOP) versus latanoprost” value in data set [4] was “lower mean pressures than latanoprost at every time point studied”.
As to `CC(C)OC(=O)CCC/C=C\C[C@@H]1[C@@H](CC[C@@H](O)CCc2ccccc2)[C@H](O)C[C@@H]1O` [latanoprost], the API stability result in data set [1] is recorded as “experiencing degradation”. Moreover, in data set [2], the “rate of adjunctive medication use” value is given as 30.2%.
